Results published in patent US20020187534A1, “Treating cancer by increasing intracellular malonyl CoA levels” (priority 1999, published 2002).

Legend:
[1] = tested on: SKBR3 and MCF7 human breast cancer cell lines; assay: Fatty acid synthesis activity, [U-14C]-acetate pulse labeling of lipids; assay type: cell-based; conditions: for [U14C-acetate] incorporation into lipids: SKBR3 and MCF7, labeled for 2 hours after exposure to inhibitor; for dose range of maximal inhibition of FA synthesis: all cell lines tested
Experimental: The human breast cancer cell lines, SKBR3 and MCF7 were maintained in RPMI with 10% fetal bovine serum. Cells were screened periodically for Mycoplasma contamination (Gen-probe). All inhibitors were added as stock 5 mg/ml solutions in DMSO. For fatty acid synthesis activity determinations, 5×10^4 cells/well in 24 well plates were pulse labeled with [U-^14C]-acetate after exposure to drug, and lipids were extracted and quantified as described previously (Pizer, et al., 1988). For MCF7 cells, pathway activity was determined after 2 hours of inhibitor exposure.

[2] = tested on: SKBR3 and MCF7 human breast cancer cells; assay: Clonogenic assay (Example 2); assay type: cell-based; conditions: for cytotoxicity in clonogenic assays: inhibitors 6 hours, dose range for ACC or FAS inhibition
Experimental: Cells and inhibitors were as described for Example 1. For clonogenic assays, 4×10^5 cells were plated in […] flasks with inhibitors added for 6 hours in concentrations listed. Equal numbers of treated cells and controls were plated in 60 mm dishes. Clones were stained and counted after 7 to 10 days.

[3] = tested on: MCF-7 cells; assay: Malonyl-CoA levels by reversed phase HPLC; assay type: cell-based, human; conditions: for malonyl-CoA levels increased over controls: 1 hour exposure at 10 μg/ml
Experimental: Malonyl-CoA levels were measured in MCF-7 cells using the HPLC method of Corkey, et al. (1988, “Analysis of acyl-coenzyme A esters in biological samples,” Methods in Enzymology, 166:55-70). Briefly, 2.5×10^5 cells/well in 24 well plates were subjected to 1.2 ml of 10% TCA at 4° C. after various drug treatments. The pellet mass was recorded and the supernatant was washed 6 times with 1.2 ml of ether and reduced to dryness using vacuum centrifugation at 25° C. Coenzyme-A esters were separated and quantitated using reversed phase HPLC on a 5μ Supelco C18 column with a Waters HPLC system running Millenium^32 software monitoring 254 nm as the maximum absorbance for coenzyme-A. The following gradients and buffers were utilized: Buffer A: 0.1 M potassium phosphate, pH 5.0, Buffer B: 0.1 M potassium phosphate, pH 5.0, with 40% acetonitrile. Following a 20 min. isocratic run with 92% A, 8% B at 0.4 ml/min, flow was increased to 0.8 ml/min over one minute whereupon a linear gradient to 10% B was run until 24 min. then held at 10% B until 50 min. where a linear gradient was run to 100% B at 55 min., completing at 60 min. The following coenzyme-A esters (Sigma) were run as standards: malonyl-CoA, acetyl-CoA, glutathione-CoA, succinyl-CoA, HMG-CoA, and free CoA. Samples and standards were dissolved in 50 μl of buffer A. Coenzyme-A esters eluted sequentially as follows: malonyl-CoA, glutathione-CoA, free CoA, succinyl-CoA, HMG-CoA, and acetyl-CoA. Quantitation of coenzyme-A esters was performed by the Millenium^32 software.

[4] = tested on: MCF-7 xenografts; assay: Growth of subcutaneous MCF-7 xenografts in athymic nude mice; assay type: in vivo, mouse; conditions: 30 mg/kg intraperitoneal weekly, after 32 days
Experimental: Subcutaneous flank xenografts of the human breast cancer cell line, MCF-7 in nu/nu female mice (Harlan) were used to study the anti-tumor effects of C75 in vivo. All animal experiments complied with institutional animal care guidelines. All mice received a 90-day slow-release subcutaneous estrogen pellet (Innovative Research) in the anterior flank 7 days before tumor inoculation. […] MCF-7 cells were xenografted from culture in DMEM supplemented with 10% FBS and insulin 10 μg/ml.
(§1) Treatment began when measurable tumors developed about 10 days after inoculation. Eleven mice (divided among two separate experiments of 5 and 6 mice each) were treated intraperitoneally with wcekly doses of C75 at 30 mg/kg in 0.1 ml RPMI. […] Eleven control mice (divided in the same way as the treatment groups) received RPMI alone. Tumor volume was measured with calipers in three dimensions. Experiment was terminated when controls reached the surrogate endpoint.

[5] = tested on: fatty acid synthesis in MCF-7 xenografts and liver; assay: Ex vivo [U-14C]-acetate labeling of tumor and liver of xenografted mice; assay type: in vivo, mouse; conditions: 30 mg/kg intraperitoneal, within 3 hours
Experimental: In a parallel experiment to determine fatty acid synthesis activity in treated and control tumors, a group of MCF-7 xenografted mice were treated with C75 or vehicle at above doses and sacrificed after 3 hours. Tumor and liver tissue were ex vivo labeled with [U^14-C] acetate, lipids were extracted and counted as described (Pizer, et al, 1996).

[6] = Single dose LD10 determination; assay type: in vivo; conditions: BALB/c mice
[7] = tested on: MCF-7 xenografts; assay: Histology of treated xenograft tumors; assay type: in vivo, mouse; conditions: 6 hours after 30 mg/kg
Experimental: (§2) In an additional parallel experiment to histologically examine treated and control tumors, 6 C75 treated and 6 vehicle control mice were sacrificed 6 hours after treatment. Tumor and normal tissues were fixed in neutral-buffered formalin, processed for routine histology, and immunohistochemistry for FAS was performed. Immunohistochemistry for FAS was performed on the MCF-7 xenografts using a mouse monoclonal anti-FAS antibody (Alo, et al., 1996) at 1:2000 on the Dako Immunostainer using the LSAB2 detection kit.

[8] = Toxicity to host in nude mice (tolerability, histology of liver and other host tissues, weight); assay type: in vivo, mouse
Experimental: as §1, §2

[9] = tested on: MCF-7 cells; assay: Cell growth inhibition assay, crystal violet; assay type: cell-based, human; conditions: for growth inhibition: 48 hours after treatment, Example 12
[10] = tested on: MCF-7 cells; assay: Fatty acid oxidation, 14CO2 released from [14C]palmitate; assay type: cell-based, human
Experimental: Fatty acid oxidation was measured by trapping and counting the ^14CO2 released from the oxidation of [^14C]palmitate in base. 1×10^6 MCF-7 cells were plated in T-25 flasks in triplicate and incubated overnight at 37° C. […] After 2 hours, medium with drugs was removed and cells were preincubated for 30 minutes with 1.5 ml of the following buffer: 114 mM NaCl, 4.7 mM KCI, 1.2 mM KH2PO4, 1.2 mM MgSO4, glucose 11 mM. After preincubation, 200 μl of assay buffer was added containing: 114 mM NaCl, 4.7 mM KCl, 1.2 mM KH2PO4, 1.2 mM MgSO4, glucose 11 mM, 2.5 mM palmitate (containing with 100 μCi of [1-^14C]palmitate) bound to albumin, 0.4 mM L-camitine, and cells were incubated at 37° C. for 2 hours. Following the incubation, 400 μl of benzothonium hydrochloride was added to the center well to collect released ^14CO2. […] The flasks with wells were then incubated for 2 hours at 37° C. after which the benzothonium hydrochloride was removed and counted for ^14C.

[11] = tested on: CPT-1; assay: Carnitine palmitoyltransferase-1 (CPT-1) assay in permeabilized MCF-7 cells; assay type: cell-based, human
Experimental: MCF-7 cells were plated in RPMI 1640 with 10% fetal bovine serum at 1×10^6 cells in six-well plates in triplicate. Following overnight incubation at 37° C., medium was removed and replaced with 700 μl of assay medium consisting of: 50 mM imidazole, 70 mM KCl, 80 mM sucrose, 1 mM EGTA, 2 mM MgCl2, 1 mM DTT, 1 mM KCN, 1 mM ATP, 0.1% fatty acid free bovine serum albumin, 70 μM palmitoyl-CoA, 0.25 μCi (methyl-^14C]L-camitine, 40 μg digitonin with or without 20 μM malonyl-CoA or other indicated inhibitors.
After incubation for 3 or 6 minutes at 37° C., the reaction was stopped by the addition of 500 μl of ice-cold 4 M perchloric acid. Cells were then harvested and centrifuged at 10,000× g for 5 min. The pellet was washed with 500 μl ice cold perchloric acid and centrifuged again. The resulting pellet was resuspended in 800 μl dH2O and extracted with 150 μl of butanol. The butanol phase was counted by liquid scintillation and represents the acylcarnitine derivative.

[12] = tested on: MCF-7 cells; assay: Clonogenic assay (Example 11); assay type: cell-based, human; conditions: 6 h exposure; TOFA at 5 μg/ml
Experimental: After overnight incubation at 37° C., 1×10^6 MCF-7 cells were exposed to drugs as indicated for 6 h, washed, detached by trypsin digestion, counted and plated at 1000 or 500 cells/60-mm plate in triplicate. Colonies were stained with crystal violet and counted 4-6 days after plating. Controls consisted of cells incubated with DMSO without drugs. Error bars represent standard error of the mean.

[13] = in vivo; cited from earlier work
[14] = tested on: SKBR3 and MCF7 cells; assay: Apoptosis by multiparameter flow cytometry, merocyanine 540 staining; assay type: cell-based, human
Experimental: Apoptosis was measured by multiparameter flow cytometry using a FACStar^Plus flow cytometer equipped with argon and krypton lasers (Becton Dickinson). Apoptosis was quantified using merocyanine 540 staining (Sigma), which detects altered plasma membrane phospholipid packing that occurs early in apoptosis, added directly to cells from culture (Pizer, et al., 1998; Mower, et al., 1994, “Decreased membrane pospholipid packing and decreased cell size precede DNA cleavage in mature mouse B cell apoptosis, J. Immunol., 152:4832-4842). In some experiments, chromatin conformational changes of apoptosis were simultaneously measured as decreased staining with LDS-751 (Exciton) (Frey, et al., 1995, “Nucleic acid dyes for detection of apoptosis in live cells,” Cytometry, 21:265-274). […] Cells were stained with LDS-751 at a final concentration of 100 nM from a 1 mM stock in DMSO. The merocyanine 540-positive cells were marked by an increase in red fluorescence, collected at 575+/−20 nm, 0.5 to 2 logs over merocyanine 540-negative cells. […] Data were collected and analyzed using CellQuest software (Becton Dickinson). In these experiments, all LDS-751 dim cells were merocyanine 540 bright, however a population of merocyanine 540 bright cells were detected that were not yet LDS-751 dim. All merocyanine 540 bright cells were classified as apoptotic.

[15] = tested on: M-CPT-1; conditions: cited from earlier work

Compound: C=C1C(=O)OC(CCCCCCCC)C1C(=O)O (stereo not shown) [C75]
- [U14C-acetate] incorporation into lipids [1]: inhibited
- dose range of maximal inhibition of FA synthesis [1]: ~10 µg/mL
- cytotoxicity in clonogenic assays [2]: significantly cytotoxic
- malonyl-CoA levels increased over controls [3]: 370%
- difference in tumor growth compared to vehicle controls [4]: greater than eight-fold
- reduction of fatty acid synthesis in MCF-7 xenografts [5]: 70%
- reduction of fatty acid synthesis in ex vivo labeled liver [5]: 76%
- LD10 [6]: 40 mg/kg
- tumor histology [7]: numerous apoptotic bodies throughout the tumor tissue
- tolerability ([8]; 30 mg/kg, outbred nude mice): well tolerated
- histological analysis of liver and other host tissues ([8]; following C75 treatment): no evidence of any short or long term toxicity
- toxicity noted ([8]; weekly intraperitoneal treatment): transient reversible weight loss was the only toxicity noted
- growth inhibition [9]: significant growth inhibition over control

Compound: O=C([O-])C1(CCCCCCOc2ccc(Cl)cc2)CO1.[Na+] (stereo not shown) [Etomoxir]
- reduction in growth ([9]; 200 μg/ml, the only effective dose): significant reduction in growth
- growth inhibition [9]: significant growth inhibition over control
- growth inhibition or cytotoxicity ([9]; doses known to inhibit CPT-1 and fatty acid oxidation, 48 or 72 h, Example 10): no significant growth inhibition or cytotoxicity
- growth inhibition of MCF-7 cells ([9]; over 72 h, Example 7): dose dependent growth inhibition of MCF-7 cells over 72 h greater than that of C75 at 5 μg/ml
- fatty acid oxidation decreased over control ([10]; 50 μg/ml): > 50%
- reduction in CPT-1 activity ([11]; 10 μg/ml): 75%
- cytotoxicity in clonogenic assay [12]: not significantly cytotoxic
- toxicity in humans treated for diabetes [13]: without significant toxicity or weight loss

Compound: CCCCCCCCCCCCCCOc1ccc(C(=O)O)o1 [TOFA, 5-(tetradecyloxy)-2-furoic acid]
- [U14C-acetate] incorporation into lipids [1]: inhibited
- dose range of maximal inhibition of FA synthesis [1]: 1 to 5 µg/mL
- reduction in clonogenicity [2]: no reduction
- TOFA rescue of C75 cytotoxicity in clonogenic assay ([2]; MCF7 cells): modest rescue
- TOFA rescue of cerulenin cytotoxicity in clonogenic assay ([2]; MCF7 cells): modest rescue
- cytotoxicity in clonogenic assays [2]: non-toxic or stimulatory
- reduction of malonyl-CoA levels ([3]; 20 μg/ml): 60%
- increase in apoptosis [14]: < 5%
- TOFA rescue from cerulenin induced apoptosis ([14]; SKBR3 and MCF7 cells): rescued cells from cerulenin induced apoptosis
- changes in fatty acid oxidation ([10]; data not shown): nor does TOFA cause significant changes in fatty acid oxidation
- direct inhibition of CPT-1 [11]: does not cause CPT-1 inhibition
- cytotoxicity in clonogenic assay [12]: not significantly cytotoxic

Compound: C/C=C/C/C=C/CCC(=O)[C@H]1O[C@H]1C(N)=O [cerulenin]
- reduction in fatty acid synthesis ([1]; MCF-7, 10 μg/ml, within 2 hours): > 50%
- [U14C-acetate] incorporation into lipids [1]: inhibited
- dose range of maximal inhibition of FA synthesis [1]: ~10 µg/mL
- reduction in clonogenicity [2]: 70%
- cytotoxicity in clonogenic assays [2]: significantly cytotoxic
- increase in malonyl-CoA ([3]; 10 μg/ml): nine-fold
- malonyl-CoA levels increased over controls [3]: 930%
- apoptosis [14]: > 85%
- reduction in fatty acid oxidation compared to control ([10]; 10 μg/ml, 2 hours): ~50%

Compound: CC(C)(COP(=O)(O)OP(=O)(O)OC[C@H]1O[C@@H](n2cnc3c(N)ncnc32)[C@H](O)[C@@H]1OP(=O)(O)O)[C@@H](O)C(=O)NCCC(=O)NCCSC(=O)CC(=O)O [malonyl-CoA]
- sensitivity of M-CPT-1 versus L-CPT-1 to malonyl-CoA inhibition [15]: 100 fold
